Measured values from patent publication US8476253B2, “Amide derivative” (Daiichi Sankyo Company, Limited, priority 2009, dated 2013).
Structures can show the parent of a compound that is named as a salt. Where two headings read alike, the source gives them in different places.

What was measured:
human M3 receptor = target: T1, human M3 receptor (Homo sapiens, UniProt P20309); experiment: Test for binding to human M3 receptor
T1 construct: expressed in transfected cells; host or cells: CHO cells
Experimental: A solution of cryopreserved CHO cells expressing human M3 receptor was diluted with a buffer (50 mM tris-hydrochloride containing 0.5 mM of EDTA, pH 7.4) to obtain 5.0×10^5 of cells/mL and used as a crude membrane sample.
[N-methyl-^3H]-(−)-Scopolamine methyl chloride (GE Healthcare Japan Corporation) was diluted with 50 mM of tris-hydrochloride containing 0.5 mM of EDTA (pH 7.4), a test substance and 250 μL of the crude membrane sample solution were added to 250 μL of the mixture, and the mixture was incubated at room temperature for 60 minutes. […] The glass fiber filter paper was pretreated with a 0.1% polyethylenimine solution for 4 hours or longer to minimize non-specific binding. The filter collecting membrane components was transferred to a small-size plastic vial containing 3 mL of Pico-Fluor, and the radioactivity was measured with a liquid scintillation counter (Tri-Carb 2900TR or 2300TR; Perkin Elmer).
The effect of binding to the M3 receptor was calculated as the affinity (Ki) of the test substance for the M3 receptor from a 50% binding dose (IC50) and the affinity (Kd) of [N-methyl-^3H]-(−)-Scopolamine methyl chloride for the M3 receptor.

substance P receptor = target: T2, substance P receptor (Cavia porcellus, UniProt P30547); experiment: Test for binding to guinea-pig substance P receptor (crude lung membrane sample); conditions: crude guinea-pig lung membrane sample, [3H]substance P; Ki from IC50 and Kd; read-out: Ki
T2 construct: A preparation of a crude lung membrane sample was prepared; from tissue; host or cells: guinea-pig lung (crude membrane sample)
Experimental: A preparation of a crude lung membrane sample was prepared, and a test for binding of a test substance to the sample was performed according to the method described in EP0336230A2.
The binding effect of the test substance to a substance P receptor was calculated as an affinity (Ki) of the test substance for the substance P receptor from a 50% binding concentration (IC50) and an affinity (Kd) of [^3H]substance P for the substance P receptor.

human NK2 receptor = target: T3, human NK2 receptor (Homo sapiens, UniProt P21452); experiment: Test for binding to human NK2 receptor
T3 construct: expressed in transfected cells; host or cells: COS cells
T3 sequence (P21452 1-398): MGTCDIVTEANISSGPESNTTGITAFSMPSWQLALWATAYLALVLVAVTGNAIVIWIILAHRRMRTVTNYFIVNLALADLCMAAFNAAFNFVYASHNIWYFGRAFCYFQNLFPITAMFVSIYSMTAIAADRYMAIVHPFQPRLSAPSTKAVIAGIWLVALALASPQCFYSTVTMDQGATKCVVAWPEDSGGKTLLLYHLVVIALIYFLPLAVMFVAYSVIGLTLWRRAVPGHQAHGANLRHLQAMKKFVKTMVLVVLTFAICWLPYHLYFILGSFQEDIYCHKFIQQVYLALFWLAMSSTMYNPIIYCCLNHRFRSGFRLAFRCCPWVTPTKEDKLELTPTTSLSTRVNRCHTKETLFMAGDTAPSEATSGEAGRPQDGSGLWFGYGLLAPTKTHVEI
Experimental: A solution of cryopreserved COS cells expressing human NK2 receptor was diluted with a buffer (50 mM tris-hydrochloride containing 0.04% of bovine serum albumin [BSA], pH 7.4) to obtain a concentration of 5.0×10^5 cells/mL and used as a crude membrane sample.
[^3H]SR 48968 (GE Healthcare Japan Corporation) was diluted with a mixture of 50 mM of tris-hydrochloride (pH 7.4), 6 mM of manganese chloride tetrahydrate, 800 μg/mL of BSA, 8 μg/mL of chymostatin, 8 μg/mL of leupeptin, 80 μg/mL of bacitracin, and 20 μg/mL of phosphoramidon. […] After the reaction, the membrane components were collected on a GF/B glass fiber filter paper (Whatman; Biomedical Research and Development Laboratories, Inc.) with an automated filtration system (Brandel; Biomedical Research and Development Laboratories, Inc.). The glass fiber filter paper was pretreated with a 0.1% polyethylenimine solution for 4 hours or longer to minimize non-specific binding. The filter collecting the membrane components was transferred to a small-size plastic vial containing 3 mL of Pico-Fluor, and the radioactivity was measured with a liquid scintillation counter (Tri-Carb 2900TR or 2300TR; Perkin Elmer).
The effect of binding to the NK2 receptor was calculated as the affinity (Ki) of the test substance for the NK2 receptor from a 50% binding dose (IC50) and the affinity (Kd) of [^3H]SR 48968 for the NK2 receptor.

[1] = CHO cells expressing human M3 receptor, [N-methyl-3H]-(-)-Scopolamine methyl chloride 0.5 nM, Ki from IC50 and Kd, read-out: Ki
[2] = COS cells expressing human NK2 receptor, [3H]SR 48968 1 nM, Ki from IC50 and Kd, read-out: Ki

T1 sequence (P20309 whole entry): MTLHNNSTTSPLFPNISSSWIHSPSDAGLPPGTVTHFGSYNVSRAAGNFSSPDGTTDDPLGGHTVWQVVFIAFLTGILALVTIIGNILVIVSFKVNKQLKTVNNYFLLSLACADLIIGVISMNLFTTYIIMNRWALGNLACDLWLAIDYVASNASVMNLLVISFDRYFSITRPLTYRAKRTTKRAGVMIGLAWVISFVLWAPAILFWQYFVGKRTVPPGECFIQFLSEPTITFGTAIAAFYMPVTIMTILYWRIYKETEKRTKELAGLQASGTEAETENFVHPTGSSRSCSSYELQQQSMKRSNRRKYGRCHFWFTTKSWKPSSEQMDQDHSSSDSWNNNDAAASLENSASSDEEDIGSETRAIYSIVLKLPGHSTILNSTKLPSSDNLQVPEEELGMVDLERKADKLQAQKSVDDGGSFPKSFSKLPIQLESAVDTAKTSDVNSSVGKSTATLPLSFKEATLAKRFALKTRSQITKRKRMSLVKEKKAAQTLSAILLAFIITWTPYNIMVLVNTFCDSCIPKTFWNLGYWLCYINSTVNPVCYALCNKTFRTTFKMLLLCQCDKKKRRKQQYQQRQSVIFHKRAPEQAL
T2 sequence (P30547 whole entry): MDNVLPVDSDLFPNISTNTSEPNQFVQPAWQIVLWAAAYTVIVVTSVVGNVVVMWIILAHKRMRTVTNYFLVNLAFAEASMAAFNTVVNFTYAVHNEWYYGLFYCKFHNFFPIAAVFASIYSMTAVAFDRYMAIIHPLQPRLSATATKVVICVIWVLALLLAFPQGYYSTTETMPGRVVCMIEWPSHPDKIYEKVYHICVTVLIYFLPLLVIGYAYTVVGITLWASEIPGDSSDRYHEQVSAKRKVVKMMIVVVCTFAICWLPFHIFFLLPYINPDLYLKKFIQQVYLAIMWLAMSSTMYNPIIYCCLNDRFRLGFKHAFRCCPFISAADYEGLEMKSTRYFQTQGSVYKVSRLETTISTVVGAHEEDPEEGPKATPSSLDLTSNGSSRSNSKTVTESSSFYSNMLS

SMILES | Ki (human M3 receptor; [1]) [nM] | Ki (substance P receptor) [nM] | Ki (human NK2 receptor; [2]) [nM] | Ki (human M3 receptor) [nM] | Ki (human NK2 receptor) [nM]
Cc1cc(NCCCCCC(=O)N(C)CCN2CCC(OC(=O)Nc3ccccc3-c3ccccc3)CC2)sc1C(=O)N(C)CCN(C)C(=O)CO[C@H]1Cc2ccccc2C12CCN(CC[C@@]1(c3ccc(F)cc3)CN(C(=O)c3cc(C(F)(F)F)cc(C(F)(F)F)c3)CO1)CC2 [Example 89, 1-(2-{[6-({5-[{2-[({[(2S)-1′-{2-[(5R)-3-[3,5-Bis(trifluoromethyl)benzoyl]-5-(4-fluorophenyl)-1,3-oxazolidin-5-yl]ethyl}-2,3-dihydrospiro[indene-1,4′-piperidin]-2-yl]oxy}acetyl)(methyl)amino]ethyl}(methyl)carbamoyl]-4-methyl-2-thienyl}amino)hexanoyl](methyl)amino}ethyl)piperidin-4-yl biphenyl-2-ylcarbamate] | 1.2 | 0.74 | 0.75 | – | –
Cc1nc(NCCCCCC(=O)N(C)CCN2CCC(OC(=O)Nc3ccccc3-c3ccccc3)CC2)sc1C(=O)N(C)CCN(C)C(=O)CO[C@H]1Cc2ccccc2C12CCN(CC[C@@]1(c3ccc(F)cc3)CN(C(=O)c3cc(C(F)(F)F)cc(C(F)(F)F)c3)CO1)CC2 [Example 107, 1-(2-{[6-({5-[{2-[({[(2S)-1′-{2-[(5R)-3-[3,5-Bis(trifluoromethyl)benzoyl]-5-(4-fluorophenyl)-1,3-oxazolidin-5-yl]ethyl}-2,3-dihydrospiro[indene-1,4′-piperidin]-2-yl]oxy}acetyl)(methyl)amino]ethyl}(methyl)carbamoyl]-4-methyl-1,3-thiazol-2-yl}amino)hexanoyl](methyl)amino}ethyl)piperidin-4-yl biphenyl-2-ylcarbamate trihydrochloride] | – | 1.2 | – | 1.4 | 0.59
CN(CCN1CCC(OC(=O)Nc2ccccc2-c2ccccc2)CC1)C(=O)CCCCCNc1ccc(C(=O)N(C)CCCN(C)C(=O)CO[C@H]2Cc3ccccc3C23CCN(CC[C@@]2(c4ccc(F)cc4)CN(C(=O)c4cc(C(F)(F)F)cc(C(F)(F)F)c4)CO2)CC3)cc1F [Example 13, 1-(2-{[6-({4-[{3-[({[(2S)-1′-{2-[(5R)-3-[3,5-Bis(trifluoromethyl)benzoyl]-5-(4-fluorophenyl)-1,3-oxazolidin-5-yl]ethyl}-2,3-dihydrospiro[indene-1,4′-piperidin]-2-yl]oxy}acetyl)(methyl)amino]propyl}(methyl)carbamoyl]-2-fluorophenyl}amino)hexanoyl](methyl)amino}ethyl)piperidin-4-yl biphenyl-2-ylcarbamate trihydrochloride] | – | 2.6 | – | 1.2 | 0.65
CN(CCN1CCC(OC(=O)Nc2ccccc2-c2ccccc2)CC1)C(=O)CCCC1CCN(c2ccc(C(=O)N(C)CCCN(C)C(=O)CO[C@H]3Cc4ccccc4C34CCN(CC[C@@]3(c5ccc(F)cc5)CN(C(=O)c5cc(C(F)(F)F)cc(C(F)(F)F)c5)CO3)CC4)cc2)CC1 [Example 66, 1-(2-{[4-(1-{4-[{3-[({[(2S)-1′-{2-[(5R)-3-[3,5-Bis(trifluoromethyl)benzoyl]-5-(4-fluorophenyl)-1,3-oxazolidin-5-yl]ethyl}-2,3-dihydrospiro[indene-1,4′-piperidin]-2-yl]oxy}acetyl)(methyl)amino]propyl}methyl)carbamoyl]phenyl}piperidin-4-yl)butanoyl](methyl)amino}ethyl)piperidin-4-yl biphenyl-2-ylcarbamate trihydrochloride] | 1.5 | 2.1 | 0.86 | – | –
CN(CCN1CCC(OC(=O)Nc2ccccc2-c2ccccc2)CC1)C(=O)CCCCCNCc1ccc(C(=O)N(C)CCCN(C)C(=O)CO[C@H]2Cc3ccccc3C23CCN(CC[C@@]2(c4ccc(F)cc4)CN(C(=O)c4cc(C(F)(F)F)cc(C(F)(F)F)c4)CO2)CC3)nc1 [Example 7, 1-{2-[{6-[({6-[{3-[({[(2S)-1′-{2-[(5R)-3-[3,5-Bis(trifluoromethyl)benzoyl]-5-(4-fluorophenyl)-1,3-oxazolidin-5-yl]ethyl}-2,3-dihydrospiro[indene-1,4′-piperidin]-2-yl]oxy}acetyl)(methy)amino]propyl}(methyl)carbamoyl]pyridin-3-yl}methyl)amino]hexanoyl}(methyl)amino]ethyl}piperidin-4-yl biphenyl-2-ylcarbamate] | 0.9 | 0.57 | 0.17 | – | –
CN(CCCCCC(=O)N(C)CCN1CCC(OC(=O)Nc2ccccc2-c2ccccc2)CC1)Cc1ccc(C(=O)N(C)CCCN(C)C(=O)CO[C@H]2Cc3ccccc3C23CCN(CC[C@@]2(c4ccc(F)cc4)CN(C(=O)c4cc(C(F)(F)F)cc(C(F)(F)F)c4)CO2)CC3)nc1 [Example 5, 1-{2-[{6-[({6-[{3-[({[(2S)-1′-{2-[(5R)-3-[3,5-Bis(trifluoromethyl)benzoyl]-5-(4-fluorophenyl)-1,3-oxazolidin-5-yl]ethyl}-2,3-dihydrospiro[indene-1,4′-piperidin]-2-yl]oxy}acetyl)(methyl)amino]propyl}(methyl)carbamoyl]pyridin-3-yl}methyl)(methyl)amino]hexanoyl}(methyl)amino]ethyl}piperidin-4-yl biphenyl-2-ylcarbamate] | 0.69 | 1.5 | 0.48 | – | –
CN(CCN1CCC(OC(=O)Nc2ccccc2-c2ccccc2)CC1)C(=O)CCCCCNCc1ccc(C(=O)N(C)CCCN(C)C(=O)CO[C@H]2Cc3ccccc3C23CCN(CC[C@@]2(c4ccc(F)cc4)CN(C(=O)c4cc(C(F)(F)F)cc(C(F)(F)F)c4)CO2)CC3)cc1 [Example 75, 1-(2-{[6-({4-[{3-[({[(2S)-1-{2-[(5R)-3-[3,5-Bis(trifluoromethyl)benzoyl]-5-(4-fluorophenyl)-1,3-oxazolidin-5-yl]ethyl}-2,3-dihydrospiro[indene-1,4′-piperidin]-2-yl]oxy}acetyl)(methyl)amino]propyl}(methyl)carbamoyl]benzyl}amino)hexanoyl](methyl)amino}ethyl)piperidin-4-yl biphenyl-2-ylcarbamate] | 0.52 | 1 | 0.25 | – | –
CN(CCN1CCC(OC(=O)Nc2ccccc2-c2ccccc2)CC1)C(=O)CCCCCN(C)c1ccc(C(=O)N(C)CCCN(C)C(=O)CO[C@H]2Cc3ccccc3C23CCN(CC[C@@]2(c4ccc(F)cc4)CN(C(=O)c4cc(C(F)(F)F)cc(C(F)(F)F)c4)CO2)CC3)s1 [Example 8, 1-{2-[{6-[{5-[{3-[({[(2S)-1′-{2-[(5R)-3-[3,5-Bis(trifluoromethyl)benzoyl]-5-(4-fluorophenyl)-1,3-oxazolidin-5-yl]ethyl}-2,3-dihydrospiro[indene-1,4′-piperidin]-2-yl]oxy}acetyl)(methyl)amino]propyl}(methyl)carbamoyl]-2-thienyl}(methyl)amino]hexanoyl}(methyl)amino]ethyl}piperidin-4-yl biphenyl-2-ylcarbamate] | 1.9 | 2.6 | 0.38 | – | –
